From US8372967B2, “Compounds and methods for modulating expression of GCCR” (Isis Pharmaceuticals, Inc., priority 2006, dated 2013)
Strand notation (5' to 3'): a small letter for the sugar, then the base; units joined by * are phosphorothioate-linked, units joined directly phosphodiester-linked; [ ] holds rarer units or linkages, { } end groups; capitals alone tell only the bases. e = 2'-O-(2-methoxyethyl) (MOE); l = locked nucleic acid (LNA); [5mC] = 5-methylcytosine; d = 2'-deoxy (DNA)

Key:
monkey GCGR mRNA = assay: Antisense inhibition of GCGR in primary monkey hepatocytes (Table 80); assay type: cell-based; details: relative to untreated control cells
Experimental: Additional short antisense compounds targeted to a GCGR nucleic acid were tested for their effects on monkey GCGR mRNA in vitro. Cultured primary monkey hepatocytes were treated as described herein with 25, 50, 100 or 200 nM of short antisense compound. After the treatment period, RNA was isolated from the cells and GCGR mRNA levels were measured by quantitative real-time PCR, as described herein. GCGR mRNA levels were adjusted according to total RNA content as measured by RIBOGREEN®. Results are presented in Table 80 as percent reduction in GCGR mRNA, relative to untreated control cells.

PTEN mRNA = PTEN mRNA levels in liver, kidney and fat, Balb/c mice, single i.p. 8 μmol/kg (Table 48); assay type: in vivo, mouse; details: 72 h, saline = 100
Description: Each dose group consisted of four animals. Shown in Table 46 are the sequences and motifs of the PTEN antisense compounds used in this study. Bolded residues indicate 2′-O-methoxyethyl moieties (2′-MOE) and italicized residues indicate Methyleneoxy BNA nucleotides. Each antisense compound comprises phosphorothioate linkages throughout. In addition, the cytosine residues in the gap of ISIS 384073 and in the wings of ISIS 392056, ISIS 392057, ISIS 392061 and ISIS 392063 are replaced with 5-methylcytosines. Antisense compounds target published PTEN nucleic acids, including Genbank Accession No. U92437.1 (SEQ ID
Mice were sacrificed 72 hours following injection to determine serum transaminase levels (Table 47); liver and spleen weights (Table 47); and PTEN mRNA levels in liver, kidney and fat (Table 48), according to procedures described herein and well know to one of ordinary skill in the art.

GCGR mRNA = GCGR mRNA levels in liver and estimated ED50, C57/BL6 mice, single i.p. dose of MOE and methyleneoxy BNA gapmers (Tables 44, 45); assay type: in vivo, mouse; details: liver
Experimental: Eight-week old male C57/BL6 mice (Jackson Laboratory, Bar Harbor, Me.) were administered a single dose of GCGR antisense compound by intraperitonel (i.p.) injection at a concentration of 10, 3.2, 1, and 0.32 μmol·kg. Each dose group consisted of four animals. Shown in Table 43 are the sequences, motifs and conjugates of the GCGR antisense compounds used in this study. Bolded residues indicate 2′-O-methoxyethyl (2′-MOE) modifications and the italicized residues indicate methyleneoxy (4′-CH2—O-2′) BNA modifications. All antisense compounds comprise phosphorothioate internucleoside linkages throughout and each cytosine is replaced with 5-methylcytosine. GCGR antisense compounds target published GCGR nucleic acids, including Genbank Accession No. BC031885.1 (SEQ ID NO: 7).
To determine whether the phenotypic changes shown above correlated with a decrease in GCGR mRNA, treated animals were evaluated for levels of target mRNA in liver by RT, real time PCR according to methods described herein. Table 44 show results from direct comparisons of the antisense compounds targeting GCGR nucleic acid for their effect on target expression. Results are expressed as percent of saline control.

“327131 (antisense eA*eT*eG*dT*dT*dG*dG*d[5mC]*d[5mC]*dG*dT*eG*eG*eT) [compound 327131]” was tested. Which “percent reduction in GCGR mRNA” value (monkey GCGR mRNA; 25 nM) did it give?
The value was 0%.

And the “percent reduction in GCGR mRNA” value (monkey GCGR mRNA; 50 nM)?
Its value is −8%.

And the “percent reduction in GCGR mRNA” value (monkey GCGR mRNA; 100 nM)?
The value was −36%.

What about the “percent reduction in GCGR mRNA” value (monkey GCGR mRNA; 200 nM) of the same substance?
Its value is −36%.

With “384073 (antisense lG*lC*lT*dA*dG*d[5mC]*d[5mC]*dT*d[5mC]*dT*dG*dG*dA*lT*lT*lT) [compound 384073]” as the substance, how does the “% PTEN mRNA levels in Fat” value (PTEN mRNA) read?
Its value is 77%.

What about the “% PTEN mRNA levels in Kidney” value (PTEN mRNA) of the same substance?
Its value is 74%.

What about the “% PTEN mRNA levels in Liver” value (PTEN mRNA) of the same substance?
Its value is 24%.

With “396145 (ATGGCTTCTCCATCATATCC; 5-10-5 MOE gapmer, chemistry not fully specified) [compound 396145]” as the substance, how does the “GCGR mRNA levels” value (GCGR mRNA; 3.2 μmol/kg single i.p.) read?
The value was 33% of saline control.

And the “GCGR mRNA levels” value (GCGR mRNA; 10 μmol/kg single i.p.)?
The value was 8% of saline control.

For “396147 (CTTGGGCATGCTCGTCAGTC; 5-10-5 MOE gapmer, chemistry not fully specified) [compound 396147]”, which “GCGR mRNA levels” value (GCGR mRNA; 3.2 μmol/kg single i.p.) is on record?
The value was 68% of saline control.

What about the “GCGR mRNA levels” value (GCGR mRNA; 10 μmol/kg single i.p.) of the same substance?
Its value is 28% of saline control.
